Series [1] has as its system erythrocyte suspensions of human blood. The experiment in a line: Hemolytic activity, hemoglobin release. The class given is cell-based. The conditions noted are these: human blood erythrocytes 5% v/v, absorbance 540 nm, percentage compared to melittin, three replicates; for Hemolysis (%) at 50 µM: peptide 50 μM (table prints 50 µM); for Hemolysis (%) at 125 µM: peptide 125 μM (table prints 125 µM). Here is the method: The hemolytic activity of the compounds was evaluated at 50 and 125 μM by determining hemoglobin release from erythrocyte suspensions of human blood (5% v/v) (Oxoid) using absorbance at 540 nm, as previously described. Three replicates for each peptide concentration were used.

Series [2] relates to Erwinia amylovora PMV6076. As to the kind of experiment: Antibacterial activity (MIC), in vitro growth inhibition. The class given is cell-based. The conditions noted are these: Table S1, MIC range. The gist of the method:
(§1)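 MIC determined by in vitro growth inhibition across 0.8, 1.6, 3.1, 6.2, 12.5, 25 and 50 μM peptide. Strains tested: E. amylovora PMV6076, P. syringae pv. syringae EPS94 and X. axonopodis pv. vesicatoria 2133-2.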

For series [3], the system named is Pseudomonas syringae pv. syringae EPS94. Described as above. The class given is cell-based. Conditions: Table S1, MIC range. The gist of the method: as §1
For series [4], the system named is Xanthomonas axonopodis pv. vesicatoria 2133-2. The class given is cell-based. Conditions: Table S1, MIC range. The gist of the method: as §1
Series [5] relates to Pseudomonas syringae pv. syringae, Xanthomonas axonopodis pv. vesicatoria, and Erwinia amylovora. The conditions noted are these: cited from earlier work. The text has this: Combinatorial chemistry constitutes a powerful tool to obtain peptides with improved biological activity against plant pathogens. In particular, we have employed this methodology to design and synthesize a library of cyclic decapeptides with general structure c(X5-Phe-X3-Gln) where X is Lys or Leu. Analysis of internal structural features together with a design of experiments (DOE) allowed establishing the sequence pattern for an optimal biological activity, i.e., c(X^1X^2X^3X^4LysPheLysLysLeuGln) where X^2 ≠ X^3 and X^4 = Lys. […] Cyclic peptides are preferred candidates due to their high conformational rigidity and proteolytic stability. In a previous work, a library of 66 Phe-containing cyclic decapeptides was synthesized from which sequences with high activity against E. amylovora, P. syringae pv. syringae, and X. axonopodis pv. vesicatoria were identified, highlighting c(LysLysLeuLysLysPheLysLysLeuGln) ... || The results obtained support the notion that subtle changes in a peptide sequence may lead to a significant modification of its biological activity. Thus, for example, the Phe→Trp substitution in the lead peptides c(LysLysLeuLysLysPheLysLysLeuGln) (BPC194) and c(LysLeuLysLysLysPheLysLysLeuGln) (BPC198) caused a reduction of the activity. […]

Peptide text beside a SMILES is read from it.

Consider `CC(C)C[C@@H]1NC(=O)[C@H](CCCCN)NC(=O)[C@H](CCCCN)NC(=O)[C@H](Cc2c[nH]c3ccccc23)NC(=O)[C@H](CCCCN)NC(=O)[C@H](CC(C)C)NC(=O)[C@H](CC(C)C)NC(=O)[C@H](CC(C)C)NC(=O)[C@H](CCCCN)NC(=O)[C@H](CCC(N)=O)NC1=O` [BPC184W, c(KLLLKWKKLQ)] (cyclo(KKLQKLLLKW)), for which, in series [1], the “Hemolysis (%) at 50 µM” value is 22% and the “Hemolysis (%) at 125 µM” value is given as 32%. Besides, in series [2], the “MIC Ea” value was in the range of 25 to 50 µM. In addition, the “MIC Pss” value in series [3] lay in the range of 3.1 to 6.2 µM. Also, the “MIC Xav” value in series [4] lay in the range of 1.6 to 3.1 µM.

In the case of `CC(C)C[C@@H]1NC(=O)[C@H](CCCCN)NC(=O)[C@H](CCCCN)NC(=O)[C@H](Cc2c[nH]c3ccccc23)NC(=O)[C@H](CCCCN)NC(=O)[C@H](CC(C)C)NC(=O)[C@H](CC(C)C)NC(=O)[C@H](CCCCN)NC(=O)[C@H](CC(C)C)NC(=O)[C@H](CCC(N)=O)NC1=O` [BPC192W, c(LKLLKWKKLQ)] (cyclo(KKLQLKLLKW)), in series [1], the “Hemolysis (%) at 50 µM” value worked out at 13% and the “Hemolysis (%) at 125 µM” value worked out at 17%. The “MIC Ea” value in series [2] fell in the range of 25 to 50 µM. Besides, the “MIC Pss” value in series [3] was 12.5 to 25 µM. Also, the “MIC Xav” value in series [4] lay in the range of 6.2 to 12.5 µM.

Turning to `CC(C)C[C@@H]1NC(=O)[C@H](CCCCN)NC(=O)[C@H](CCCCN)NC(=O)[C@H](CCC(N)=O)NC(=O)[C@H](CC(C)C)NC(=O)[C@H](CCCCN)NC(=O)[C@H](CCCCN)NC(=O)[C@H](Cc2c[nH]c3ccccc23)NC(=O)[C@H](CCCCN)NC(=O)[C@H](CCCCN)NC1=O` [BPC194W, c(KKLKKWKKLQ)] (cyclo(KKLKKWKKLQ)), in series [1], the “Hemolysis (%) at 50 µM” value turned out to be 3% and the “Hemolysis (%) at 125 µM” value is on record as 5%. Further, the “MIC Ea” value in series [2] lay in the range of 12.5 to 25 µM. In addition, the “MIC Pss” value in series [3] lay in the range of 12.5 to 25 µM. In series [4], the “MIC Xav” value was in the range of 6.2 to 12.5 µM.

In the case of `CC(C)C[C@@H]1NC(=O)[C@H](CCCCN)NC(=O)[C@H](CCCCN)NC(=O)[C@H](Cc2c[nH]c3ccccc23)NC(=O)[C@H](CCCCN)NC(=O)[C@H](CCCCN)NC(=O)[C@H](CCCCN)NC(=O)[C@H](CC(C)C)NC(=O)[C@H](CCCCN)NC(=O)[C@H](CCC(N)=O)NC1=O` [BPC198W, c(KLKKKWKKLQ)] (cyclo(KKKWKKLQKL)), in series [1], the “Hemolysis (%) at 50 µM” value was found to be 2% and the “Hemolysis (%) at 125 µM” value came to 4%. The “MIC Ea” value in series [2] lay within 25 to 50 µM. In series [3], the “MIC Pss” value was in the range of 25 to 50 µM. Further, in series [4], the “MIC Xav” value is 3.1 to 6.2 µM.

As to cyclo(LKKKKFLLKQ) [BPC108], in series [5], the “antibacterial activity in words, Phe peptides” value was “poorly active”.

Consider cyclo(LKKKLFKKLQ) [BPC086], for which the “antibacterial activity in words, Phe peptides” value in series [5] is “poorly active”.
